Test system: C57BL/KsJdb/db mice
Experiment: Hypoglycemic effect of single or combined administration in db/db mice (plasma glucose on day 14)
Type: in vivo, mouse
Conditions: for Decreasing rate: plasma glucose decrease vs control group mean
Procedure: As test animals, C57BL/KsJdb/db mice were used, which were created in Jackson Laboratory (USA) and known as an obesity, hyperlipemia, hyperinsulinemia, and insulin-resistant model (Journal of Clinical Investigation, 85, pp 962-967, 1990). Blood was collected from the orbital venous plexus of each 7-week-old db/db mouse using a heparin-treated capillary tube, and centrifugation was performed to collect plasma. Thereafter, the plasma glucose concentration (Glucose CII-Test Wako (Wako Pure Chemical Industries, Ltd.)), the insulin concentration (Lebis Insulin Kit: for mouse-T (SHIBAYAGI)), and the triglyceride concentration (Triglyceride E-Test Wako (Wako Pure Chemical Industries, Ltd.)) were measured for classification. The classification was performed so that distribution of each measurement item is uniform for each group by block allocation based on many variables in which the plasma glucose concentration is most emphasized using the measured values of the plasma glucose concentration, the body weight, the insulin concentration, and the triglyceride concentration. […] Two hours after the administration of the medicines on the 14th day from the beginning day of the administration, blood was collected from the orbital venous plexus, and the plasma thereof was collected to measure the plasma glucose concentration. […] Each plasma glucose concentration is expressed as mean±standard deviation for 6 mice of each group. Each decreasing rate is calculated from ((mean of plasma glucose concentration of control group)−(mean of plasma glucose concentration of each group))/(mean of plasma glucose concentration of control group)×100, while each relative index is calculated from (mean of plasma glucose concentration of each group)/(mean of plasma glucose concentration of control group).

Structure (SMILES)	Decreasing rate (300 mg/kg oral once a day for 14 days) [%]	Relative index (3 mg/kg oral once a day for 14 days, mean plasma glucose of group / control group)	Plasma glucose concentration (3 mg/kg oral once a day for 14 days, plasma 2 h after dosing on day 14, mean ± SD, 6 mice) [mg/dL]	Decreasing rate (3 mg/kg oral once a day for 14 days) [%]	Decreasing effect for the plasma glucose concentration (in words) (single administration 3 mg/kg, 14 days, compared with normal db/+m mouse level (187±16))
CN(C)C(=N)NC(=N)N.Cl [Metformin, 1,1-Dimethylbiguanide hydrochloride, reference compound]	3				
O=C([O-])C(Cl)(Cl)CCCCCCCCCCc1ccc(Cl)cc1.[Na+] [sodium 2,2-dichloro-12-(4-chlorophenyl)-dodecanoate]		0.89	241 ± 116	11	insufficient

From patent US20050272814A1, “Medicine for prevention or treatment of diabetes” (priority 2004, published 2005)
